Measured values: the NIST ThermoML archive (doi:10.1016/j.fluid.2009.12.009)

Assay: xn = mol fraction of the nth substance listed
Settings: 298.15 K, 101 kPa, Liquid, holographic laser-interferometry using flow junction cell

SMILES	binary diffusion coefficient (x1 = 0.013)	binary diffusion coefficient (x1 = 0.1)	binary diffusion coefficient (x1 = 0.3)	binary diffusion coefficient (x1 = 0.5)	binary diffusion coefficient (x1 = 0.7)	binary diffusion coefficient (x1 = 0.9)	binary diffusion coefficient (x1 = 0.97)	binary diffusion coefficient (x1 = 0.0125)	binary diffusion coefficient (x1 = 0.2)	binary diffusion coefficient (x1 = 0.4)	binary diffusion coefficient (x1 = 0.6)	binary diffusion coefficient (x1 = 0.8)	binary diffusion coefficient (x1 = 0.9915)	binary diffusion coefficient (x1 = 0.9925)	binary diffusion coefficient (x1 = 0.015)	binary diffusion coefficient (x1 = 0.985)	binary diffusion coefficient (x1 = 0.004)	binary diffusion coefficient (x1 = 0.975)	binary diffusion coefficient (x1 = 0.002)	binary diffusion coefficient (x1 = 0.05)
CCCCCl [1-chlorobutane] + CCCO	1.2e-09 m2/s	1.18e-09 m2/s	1.13e-09 m2/s	1.09e-09 m2/s	1.14e-09 m2/s	1.45e-09 m2/s	2.51e-09 m2/s													
CC(C)=O [acetone] + CCCCO		1e-09 m2/s	1.13e-09 m2/s	1.38e-09 m2/s	1.72e-09 m2/s	2.43e-09 m2/s		9.5e-10 m2/s	1.07e-09 m2/s	1.29e-09 m2/s	1.49e-09 m2/s	1.85e-09 m2/s	2.75e-09 m2/s	2.73e-09 m2/s						
CC(C)=O [acetone] + CCCO		1.22e-09 m2/s	1.4e-09 m2/s	1.64e-09 m2/s	1.98e-09 m2/s	2.67e-09 m2/s			1.33e-09 m2/s	1.49e-09 m2/s	1.74e-09 m2/s	2.4e-09 m2/s			1.14e-09 m2/s	3.12e-09 m2/s				
CC(C)=O [acetone] + O		8e-10 m2/s	6.3e-10 m2/s	8.3e-10 m2/s	1.63e-09 m2/s	3.44e-09 m2/s											1.25e-09 m2/s	4.62e-09 m2/s		
CCCO [propan-1-ol] + O		1.7e-10 m2/s				5.3e-10 m2/s			1e-10 m2/s	1.9e-10 m2/s	3.3e-10 m2/s	5e-10 m2/s							1.04e-09 m2/s	5.2e-10 m2/s
